In patent US20240201204A1, “Biomarker and Druggable Target of Neurodegeneration” (University Hospitals Cleveland Medical Center, priority 2020, published 2024):

Columns and labels:
axon initial segment = assay: Axon initial segment (AIS) degradation after TBI (AnkG, βIV-spectrin staining); type: in vivo, mouse
Experimental: (§1) Drug preparation and administration: CGP3466B (Sigma-Aldrich, SML1941) was dissolved in DMSO and then diluted in sterile saline. The final working stock was 0.0014 mg/ml for administering the 0.014 mg/kg dose. Intraperitoneal administration of CGP3466B was initiated 15 min or 24 h after injury, and tissues were harvested 6 h (for SNO-GAPDH, SNO-SIRT1 measurement) or 2 weeks (for ac-tau measurement) later, respectively. Salsalate (AdipoGen, AG-CR1-3574) was dissolved in DMSO and then diluted in sterile PBS. The final working stocks were as follows: 2.5 mg/ml (25 mg/kg dose), 1 mg/ml (10 mg/kg dose), 0.5 mg/ml (5 mg/kg dose). Daily intraperitoneal administration of salsalate was initiated 24 hr after injury and continued throughout behavioral testing. P7C3-A20 and FK866 (Sigma-Aldrich, F8557) were first dissolved in 1 vol of DMSO, followed by addition of 4 vol of Kolliphor and vigorously vortexing. The solution was then diluted with 30 vol of filtered 5% dextrose (pH 7.0). EX527 (Selleckchem, S1541) was dissolved in 1% DMSO+30% polyethylene glycol+1% Tween 80. Daily intraperitoneal administration of P7C3-A20 was initiated 24 hr after poly-traumatic brain injury. EX527 (10 mg/kg) was administer once a day and FK866 was treated twice per day, with the first injection given at the same time as P7C3-A20 (20 mg/kg) and the second injection given 6 h later (LoCoco et al., 2017 eLife). Diflunisal was first dissolved in 1 vol of DMSO, followed by addition of 2 vol of Kolliphor and vigorously vortexing. The solution was then diluted with 7 vol of saline to the appropriate concentration for administration at 25, 50, or 100 mg/kg.
(§2) The pressure in the side not containing the mouse was increased to cause membrane rupture at 20 pounds per square inch (PSI), which generates an about 1-2 ms jet airflow of 137.9+/−13.79 kPa that passes through the animal's head. The head remains untethered in a padded holder, while the body is fully shielded by a metal tube. The jet of air produced upon membrane rupture provides a concussive injury, which is followed by acceleration/deceleration of the head and then exposure to the ensuing blast wave within an enclosed space.
Immunohistochemistry: Mice were transcardially perfused with cold 1× phosphate-buffered saline (PBS) followed by 4% paraformaldehyde in PBS at pH 7.4 under anesthesia. Brains were carefully removed and post-fixed in 4% paraformaldehyde overnight at 4° C. Brains were immersed in 30% sucrose in PBS for 72 h at 4° C. and then rapidly frozen in 2-methylbutane pre-cooled to −20° C. with dry ice. Brains were cut coronally (40 μm) and sections were stored in cryoprotective solution (150 mM Ethylene glycol, 100 mM glycerol, 250 mM PBS) at −20° C. For tau and NeuN staining, sections were washed three times with PBS for 5 min and then treated with 0.2% Triton X-100 in PBS for 15 min. Sections were washed with PBS and then incubated with 100 mM glycine for 15 min. After blocking sections using blocking buffer (1% bovine serum albumin, 10% normal goat serum, 0.3 M glycine) for 30 min, primary antibodies (Tau, Invitrogen, #13-6400, 1:100, NeuN, EMD Millipore Cor., #MABN-140, 1:500) were incubated overnight at 4° C. Sections were washed three times with PBS (5 min each) and then incubated with Alexa Fluor 488 goat anti-mouse (Invitrogen, A11001, 1:200) or Alexa Fluor 568 goat anti-rabbit (Life technologies, A11011, 1:200) at room temperature for 2 h. […]

NAD^+ = assay: Brain NAD+ measurement after TBI; type: in vivo, mouse
Experimental: as §1, with “Diflunisal was first dissolved in 1 vol of DMSO, followed by addition of 2 vol of Kolliphor and vigorously vortexing. The solution was then diluted with 7 vol of saline to the appropriate concentration for administration at 25, 50, or 100 mg/kg.” left out

tau = assay: Tau mislocalization after TBI (tau and NeuN immunohistochemistry); type: in vivo, mouse
Experimental: as §1, §2
Immunohistochemistry: Mice were transcardially perfused with cold 1× phosphate-buffered saline (PBS) followed by 4% paraformaldehyde in PBS at pH 7.4 under anesthesia. Brains were carefully removed and post-fixed in 4% paraformaldehyde overnight at 4° C. Brains were immersed in 30% sucrose in PBS for 72 h at 4° C. and then rapidly frozen in 2-methylbutane pre-cooled to −20° C. with dry ice. Brains were cut coronally (40 μm) and sections were stored in cryoprotective solution (150 mM Ethylene glycol, 100 mM glycerol, 250 mM PBS) at −20° C. […]

p300/CBP = conditions: literature (Shirakawa et al., 2016); cited from earlier work
[1] = system: dementia, minor cognitive impairment, cognitive decline; conditions: about 19,000 subjects, placebo-controlled; cited from earlier work
GAPDH = molecular target: T1, GAPDH (Mus musculus, UniProt P16858); assay: S-nitrosylation of GAPDH after TBI (SNO-resin assisted capture, western blot); type: in vivo; conditions: P7C3-A20 treatment after TBI
T1 construct: from tissue; host or cells: cerebral cortex of C57BL/6J mice after TBI
Experimental: as §1, with “The solution was then diluted with 7 vol of saline to the appropriate concentration for administration at 25, 50, or 100 mg/kg.” left out
SNO-resin assisted capture (SNO-RAC): SNO-RAC was performed as described previously (Forrester, 2009). […] After two times centrifugation (20,000 g at 4° C. for 20 min), protein concentration of supernatants was determined using Coomassie protein assay (Thermo Scientific, #1856210). […] SNO-proteins were then eluted with 2× Laemmli Sample Buffer (Bio-Rad Laboratories, Inc., #1610737) with 10% beta-mercaptoethanol (Bio-Rad Laboratories, Inc., #1610710) and analyzed by SDS-PAGE and immunoblotting.

[2] = co-treatment with P7C3-A20, EX527 10 mg/kg once a day, FK866 twice per day
[3] = P7C3-A20 daily IP from 24 h after TBI

T1 sequence (P16858 whole entry): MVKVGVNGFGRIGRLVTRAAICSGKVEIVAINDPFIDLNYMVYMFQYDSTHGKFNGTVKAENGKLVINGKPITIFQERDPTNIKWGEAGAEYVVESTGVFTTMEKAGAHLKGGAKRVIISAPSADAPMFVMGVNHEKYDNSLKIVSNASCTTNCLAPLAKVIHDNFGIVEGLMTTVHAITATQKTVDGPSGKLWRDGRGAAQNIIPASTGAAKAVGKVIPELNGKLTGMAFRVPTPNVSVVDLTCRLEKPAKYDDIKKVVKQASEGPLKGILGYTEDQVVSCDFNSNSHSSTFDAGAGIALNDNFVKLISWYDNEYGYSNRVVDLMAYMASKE

With O=C(/C=C/c1cccnc1)NCCCCC1CCN(C(=O)c2ccccc2)CC1 [FK866] the “effect on P7C3-A20 protection from post-TBI AIS degradation” value (axon initial segment; [2]) was “This protective effect is blocked”, the “effect on P7C3-A20 rescue of NAD^+ levels” value (NAD^+; FK866 twice per day, co-administered with P7C3-A20 after TBI) was “blocked” and the “effect on P7C3-A20 protection from post-TBI tau mislocalization” value (tau; [2]) was “This protective effect is blocked”.
For CC(=O)Oc1ccccc1C(=O)O [aspirin], the “inhibition of p300/CBP” value (p300/CBP) is listed as “does not inhibit p300/CBP” and the “incidence of dementia, minor cognitive impairment, or cognitive decline” value [1] is listed as “does not significantly reduce the incidence of dementia, minor cognitive impairment, or cognitive decline”.
For COc1cccc(NCC(F)Cn2c3ccc(Br)cc3c3cc(Br)ccc32)c1 (stereo not drawn) [P7C3-A20, 3,6-dibromo-β-fluoro-N-(3-methoxyphenyl)-9H-carbazole-9-propanamine], the “post-TBI AIS degradation” value (axon initial segment; [3]) was “protects mice from post-TBI AIS degradation”, the SNO-GAPDH (GAPDH) was “SNO-GAPDH is not affected” and the “brain NAD^+ levels” value (NAD^+; P7C3-A20 daily IP from 24 h after TBI, cerebral cortex) was “rescued normal NAD^+ levels after TBI”. For the same compound, the post-TBI tau mislocalization (tau; [3]) was “protects mice from post-TBI tau mislocalization”.
